Measurements from patent US4816247A, “Emulsion compositions for administration of sparingly water soluble ionizable hydrophobic drugs” (American Cyanamid Company, priority 1985, dated 1989).
In brackets after ≈: the same amount, converted by molar mass. Entries after “also recorded” stand apart in the source; their conditions may differ. Counter-ions that a name gives are not always drawn.

Legend:
[1] = commercial product solution; cited from earlier work
[2] = test system: soft tissues / vein; settings: cited from earlier work
[3] = Absorption and excretion of antiarthritic triazine compound, candidate dosage forms; settings: in vivo
Protocol: (§1) Because the antiarthritic triazine compound is a base, organic acids as counter-ions were studied to improve drug solubility. […] Additional drug complexes were prepared with various organic and inorganic acids. […] The inherent insolubility of the drug appears to be responsible, to some extent, for the preceding results. In order to overcome the drug insolubility problem one of the objectives considered was to design a dosage form which would improve drug absorption when given by intravenous, intramuscular or intra-articular injection.

[4] = type: physicochemical
Protocol: as §1

[5] = test system: dogs; test: Clinical signs and injection site findings, repeated intravenous infusion in dogs; settings: dog
[6] = test system: peripheral vein of dogs; test: Peripheral vein irritation, intravenous infusion in peripheral vein of dogs, gross postmortem findings; type: in vivo, dog
Protocol: (§2) The emulsin drug delivery system formulation of Emulsion 3 in Table III was tested in two species of animals, for peripheral vein irritation in order to determine the occurrence of local injection site adverse reactions. Also tested was a 1.0 mg/ml solution of bisantrene hydrochloride in 5% dextrose/water and a composition of the Emulsion 3 vehicle without bisantrene base. The two species of animals used were rabbits and dogs. The formulations were given intravenously in a peripheral vein using a Butterfly infusion set (Becton, Dickinson Co., Inc., Rutherford, N.J). The marginal ear vein was used in the rabbit and the saphenous or the cephalic vein of the leg was used in the dog.
(§3) The formulations were given below by slow intravenous infusion using a Sage syringe pump (Sage Instruments, Orion Research Inc., Cambridge, Ma.) over a 2 hour period. The animals were restrained but unanesthetized during the infusion. After the infusion, the animals were returned to their cages and offered food. The animals were sacrificed one day after the infusion.
(§4) At sacrifice, the infused vein was opened from the point of infusion and cardiad for several centimeters. […] FIGS. 3, 4 and 5 are comprised of representative photographs of the opened peripheral veins of dogs as hereinabove described and verify the findings stated above.

[7] = test system: marginal ear vein of rabbits; test: Peripheral vein irritation, intravenous infusion in marginal ear vein of rabbits, gross postmortem findings; type: in vivo, rabbit; set-up: key to External: Reddened / External: Yellow Deposit / Subcutaneous: Hemorrhage / Vascular Lumen: Yellow Deposit / External: Swollen / Subcutaneous: Edema / Subcutaneous: Yellow Deposit / Vascular Lumen: Blood Clot: +: Positive or present.; -: Negative or absent
Protocol: as §2, §3, §4

[8] = test system: white blood cell counts; test: Group mean white blood cell counts, repeated intravenous infusion in dogs; type: in vivo; settings: dog
Protocol: A comparison study of the group mean white blood cell counts (WBC×10^-3) was conducted separately for both the male and female animals in each group. The WBC counts of all animals were performed 7 days before dosing. Doses were administered on days 0, 21 and 42, whereas additional WBC counts on all animals were made on days 3, 7, 14, 20, 24, 28, 35, 41, 45, 49 and 56. The mean data from this test are recorded in Table VI and the group mean white blood cell counts for males and females are plotted separately in FIGS. 6 and 7 respectively.

[9] = Solubility of bisantrene base and its oleate ion-pair in water, oils and emulsions; type: physicochemical; settings: in words
Text: Bisantrene base is insoluble in water, oils, oil phase of emulsions or preformed commercial, nutritional emulsions such as Intralipid® and Liposyn®. When Bisantrene base forms an ion-pair with oleic acid the solubility of Bisantrene increases in oils or oil phases of emulsions. Additionally, Bisantrene-oleate ion-pair acts as a surfactant, becomes part of an interfacial emulsion film and stabilizes the emulsion in vitro.

[10] = test system: erythrocytes; test: Partitioning of bisantrene in blood; type: in vitro ADME; settings: in words
Text: (§5) In serum and plasma, however due to increase in the pH the solubility drops considerably and this may be the reason that the drug precipitates at the point of infusion. […] Thus, if the drug can be kept in solution long enough to allow complete dilution in the entire blood volume, then the partitioning should take place without the intermediate precipitation.

[11] = Solubility of bisantrene in selected media and biological fluids (Table IB, FIGS. 1 and 2); type: physicochemical; settings: in words
Text: as §5

[12] = test system: plasma protein; settings: cited from earlier work
[13] = rabbit, female, 2 h i.v. infusion
[14] = rabbit, male, 2 h i.v. infusion

Compound: CC(C)NCC(O)COc1cccc2ccccc12 (racemic) [Inderal, propanolol]
- Ambient Solution pH [1]: 3.50

Compound: COc1cccc2c1C(=O)c1c(O)c3c(c(O)c1C2=O)C[C@@](O)(C(=O)CO)C[C@@H]3O[C@H]1C[C@H](N)[C@H](O)[C@H](C)O1 [Adriamycin, Doxorubicin]
- effect of extravasation into the soft tissues ([2]; intravenous administration in cancer therapy): massive tissue necrosis about the site of the attempted intravenous administration

Compound: CC(C)(C)C(C)(C)Nc1nc(NC(C)(C)C(C)(C)C)nc(N2CC3CCC(CC3)C2)n1 [Antiarthritic Triazine Compound, 3-[4,6-bis[(1,1-2,2-tetramethylpropyl)amino]-s-triazin-2-yl]-3-azabicyclo[3.2.2]nonane]
- parenteral absorption of the drug [3]: negligible
- oral absorption ([3]; po): slightly better
- Solubility [4]: 300 µg/mL (≈ 697 µM)
- increase of solubility not more than [4]: 500 to 1000 µg/mL
- solubility in water [4]: insignificant solubility in water

Compound: C[C@H](N)[C@H](O)c1cccc(O)c1 [Aramine, metaraminol]
- Ambient Solution pH [1]: 3.60

Compound: OCCOCCN1CCN(C(c2ccccc2)c2ccc(Cl)cc2)CC1 (centres unmarked) [Atarax, hydroxyzine]
- Ambient Solution pH [1]: 5.60

Compound: C(=N\NC1=NCCN1)/c1c2ccccc2c(/C=N/NC2=NCCN2)c2ccccc12 [Bisantrene HCl]
- clinical signs during the intravenous infusion ([5]; 10 mg/kg, about 2 h infusion): none was apparent
- swelling of the infused leg ([5]; 10 mg/kg, about 2 h infusion): three
- local injection site deposits or binding of the drug, inflammation and phlebitis ([5]; conclusion of study): present
- yellow-orange deposit in vascular-lumen, photograph of dog vein ([6]; FIGS. 3A, 3B, 4A, 5A, listed as bisantrene hydrochloride): clearly shows the yellow-orange deposits in the vascular-lumen
- yellow or yellow-orange deposits in vascular-lumen ([6]; peripheral vein of dogs): yellow or yellow-orange deposits which result
- yellow or yellow-orange deposits in vascular-lumen ([7]; marginal ear vein of rabbits): yellow or yellow-orange deposits which result
- External: Reddened [7, 13]: +
- External: Yellow Deposit [7, 13]: +
- Subcutaneous: Hemorrhage [7, 13]: -
- Vascular Lumen: Yellow Deposit [7, 13]: +
- External: Reddened [7, 14]: -
- External: Swollen [7, 14]: -
- External: Yellow Deposit [7, 14]: -
- Subcutaneous: Edema [7, 14]: +
- Subcutaneous: Hemorrhage [7, 14]: -
- Subcutaneous: Yellow Deposit [7, 14]: -
- Vascular Lumen: Blood Clot [7, 14]: -
- Vascular Lumen: Yellow Deposit [7, 14]: +
- group mean white blood cell count ([8]; female, day 3, 10 mg/kg i.v. on days 0, 21, 42): 6.3 WBC × 10^-3
- group mean white blood cell count ([8]; female, day 7, 10 mg/kg i.v. on days 0, 21, 42): 4.5 WBC × 10^-3
- group mean white blood cell count ([8]; female, day 14, 10 mg/kg i.v. on days 0, 21, 42): 8.6 WBC × 10^-3
- group mean white blood cell count ([8]; female, day 20, 10 mg/kg i.v. on days 0, 21, 42): 10.5 WBC × 10^-3
- group mean white blood cell count ([8]; female, day 24, 10 mg/kg i.v. on days 0, 21, 42): 5.1 WBC × 10^-3
- group mean white blood cell count ([8]; female, day 28, 10 mg/kg i.v. on days 0, 21, 42): 4.1 WBC × 10^-3
- group mean white blood cell count ([8]; female, day 35, 10 mg/kg i.v. on days 0, 21, 42): 13.0 WBC × 10^-3
- group mean white blood cell count ([8]; female, day 41, 10 mg/kg i.v. on days 0, 21, 42): 9.7 WBC × 10^-3
- group mean white blood cell count ([8]; female, day 45, 10 mg/kg i.v. on days 0, 21, 42): 5.1 WBC × 10^-3
- group mean white blood cell count ([8]; female, day 49, 10 mg/kg i.v. on days 0, 21, 42): 6.0 WBC × 10^-3
- group mean white blood cell count ([8]; female, day 56, 10 mg/kg i.v. on days 0, 21, 42): 13.2 WBC × 10^-3
- group mean white blood cell count ([8]; female, day -7 (before dosing)): 10.1 WBC × 10^-3
- group mean white blood cell count ([8]; male, day 3, 10 mg/kg i.v. on days 0, 21, 42): 7.0 WBC × 10^-3
- group mean white blood cell count ([8]; male, day 7, 10 mg/kg i.v. on days 0, 21, 42): 3.7 WBC × 10^-3
- group mean white blood cell count ([8]; male, day 14, 10 mg/kg i.v. on days 0, 21, 42): 11.1 WBC × 10^-3
- group mean white blood cell count ([8]; male, day 20, 10 mg/kg i.v. on days 0, 21, 42): 10.8 WBC × 10^-3
- group mean white blood cell count ([8]; male, day 24, 10 mg/kg i.v. on days 0, 21, 42): 5.1 WBC × 10^-3
- group mean white blood cell count ([8]; male, day 28, 10 mg/kg i.v. on days 0, 21, 42): 2.9 WBC × 10^-3
- group mean white blood cell count ([8]; male, day 35, 10 mg/kg i.v. on days 0, 21, 42): 13.5 WBC × 10^-3
- group mean white blood cell count ([8]; male, day 41, 10 mg/kg i.v. on days 0, 21, 42): 11.3 WBC × 10^-3
- group mean white blood cell count ([8]; male, day 45, 10 mg/kg i.v. on days 0, 21, 42): 5.3 WBC × 10^-3
- group mean white blood cell count ([8]; male, day 49, 10 mg/kg i.v. on days 0, 21, 42): 3.3 WBC × 10^-3
- group mean white blood cell count ([8]; male, day 56, 10 mg/kg i.v. on days 0, 21, 42): 12.8 WBC × 10^-3
- group mean white blood cell count ([8]; male, day -7 (before dosing)): 11.3 WBC × 10^-3

Compound: C(=N\NC1=NCCN1)/c1c2ccccc2c(/C=N/NC2=NCCN2)c2ccccc12 [Bisantrene, bis(2-imidazolin-2-ylhydrazone)-9,10-anthracenedicarboxaldehyde]
- solubility in water, oils, oil phase of emulsions or preformed commercial nutritional emulsions [9]: insoluble
- partitioning in blood [10]: eventually partitions into the erythrocytes which then serve as slow release carriers
- solubility in whole blood ([11]; compared with plasma and serum): much greater than in plasma and serum
- solubility characteristics of bisantrene [11]: very sensitive to temperature changes, pH, and various solutes; also recorded: quite soluble in media useful as candidates for I.V. infusions such as normal saline and 5% dextrose

Compound: C(=NNC1=NCCN1)c1c2ccccc2c(C=NNC2=NCCN2)c2ccccc12 [Bisantrene-oleate ion-pair]
- solubility in oils or oil phases of emulsions ([9]; ion-pair with oleic acid): increases

Compound: CC(=O)Nc1ccc(OCC(O)CNC(C)C)cc1 (centres unmarked) [Eraldin, practolol]
- Ambient Solution pH [1]: 5.80

Compound: C(=N\NC1=NCCN1)/c1c2ccccc2c(/C=N/NC2=NCCN2)c2ccccc12 [bisantrene dihydrochloride]
- problem likely to occur on intravenous injection ([2]; aqueous solution i.v. in mammals): chemical phlebitis

Compound: CCCCCCCC/C=C\CCCCCCCC(=O)O [oleic acid]
- molecules bound with one molecule of typical plasma protein [12]: nine
